Common to all, as to format: cell-based
Test [1] concerns the target human TLR9 (Homo sapiens (Human), UniProt Q9NR96). Kind of test: HEK293-Blue-hTLR-9 cells assay. As to conditions: HEK293-Blue-hTLR9 cells, ODN2006 stimulation, 20 hrs, SEAP reporter; read-out: HEK/hTLR9 IC50. The source says:
HEK293-Blue-hTLR-9 Cells Assay:
A stable HEK293-Blue-hTLR-9 cell line was purchased from InvivoGen (Cat. #: hkb-htlr9, San Diego, California, USA). These cells were originally designed for studying the stimulation of human TLR9 by monitoring the activation of NF-κB. A SEAP (secreted embryonic alkaline phosphatase) reporter gene was placed under the control of the IFN-β minimal promoter fused to five NF-κB and AP-1-binding sites. The SEAP was induced by activating NF-κB and AP-via stimulating HEK-Blue hTLR9 cells with TLR9 ligands. Therefore the reporter expression was declined by TLR9 antagonist under the stimulation of a ligand, such as ODN2006 (Cat. #: tlrl-2006-1, Invivogen, San Diego, California, USA), for incubation of 20 hrs. The cell culture supernatant SEAP reporter activity was determined using QUANTI-Blue™ kit (Cat. #: rep-qb1, Invivogen, San Diego, California, USA) at a wavelength of 640 nm, a detection medium that turns purple or blue in the presence of alkaline phosphatase.
(§1) HEK293-Blue-hTLR9 cells were incubated at a density of 250,000˜450,000 cells/mL in a volume of 170 μL in a 96-well plate in Dulbecco's Modified Eagle's medium (DMEM) containing 4.5 g/L glucose, 50 U/mL penicillin, […], […], 2 mM L-glutamine, 10% (v/v) heat-inactivated fetal bovine serum with addition of 20 μL test compound in a serial dilution in the presence of final DMSO at 1% and 10 μL of 20 μM ODN2006 in above DMEM, perform incubation under 37° C. in a CO2 incubator for 20 hrs. Then 20 μL of the supernatant from each well was incubated with 180 μL Quanti-blue substrate solution at 37° C. for 2 h and the absorbance was read at 620-655 nm using a spectrophotometer. The signaling pathway that TLR9 activation leads to downstream NF-κB activation has been widely accepted, and therefore similar reporter assay was modified for evaluating TLR9 antagonist.

Test [2] has as its target human TLR7 (Homo sapiens (Human), UniProt Q9NYK1). Kind of test: HEK293-Blue-hTLR-7 cells assay. As to conditions: HEK293-Blue-hTLR7 cells, R848 stimulation, 20 hrs, SEAP reporter; read-out: HEK/hTLR7 IC50.
Description: HEK293-BLUE-hTLR-7 CELLS ASSAY:
(§2) A stable HEK293-Blue-hTLR-7 cell line was purchased from InvivoGen (Cat. #: hkb-htlr7, San Diego, California, USA). These cells were originally designed for studying the stimulation of human TLR7 by monitoring the activation of NF-κB. A SEAP (secreted embryonic alkaline phosphatase) reporter gene was placed under the control of the IFN-β minimal promoter fused to five NF-κB and AP-1-binding sites. The SEAP was induced by activating NF-κB and AP-1 via stimulating HEK-Blue hTLR7 cells with TLR7 ligands. Therefore the reporter expression was declined by TLR7 antagonist under the stimulation of a ligand, such as R848 (Resiquimod), for incubation of 20 hrs. The cell culture supernatant SEAP reporter activity was determined using QUANTI-Blue™ kit (Cat. #: rep-qb1, Invivogen, San Diego, Ca, USA) at a wavelength of 640 nm, a detection medium that turns purple or blue in the presence of alkaline phosphatase.
as §1, with “HEK293-Blue-hTLR7 cells” for “HEK293-Blue-hTLR9 cells”, “μM R848” for “μM ODN2006”, “2 hrs” for “2 h”, “that TLR7” for “that TLR9”, “evaluating TLR7” for “evaluating TLR9”

Test [3] deals with human TLR8 (Homo sapiens (Human), UniProt Q9NR97). Kind of test: HEK293-Blue-hTLR-8 cells assay. Conditions: HEK293-Blue-hTLR8 cells, R848 stimulation, 20 hrs, SEAP reporter; read-out: HEK/hTLR8 IC50.
Chain of human TLR8 (Q9NR97 27-1041): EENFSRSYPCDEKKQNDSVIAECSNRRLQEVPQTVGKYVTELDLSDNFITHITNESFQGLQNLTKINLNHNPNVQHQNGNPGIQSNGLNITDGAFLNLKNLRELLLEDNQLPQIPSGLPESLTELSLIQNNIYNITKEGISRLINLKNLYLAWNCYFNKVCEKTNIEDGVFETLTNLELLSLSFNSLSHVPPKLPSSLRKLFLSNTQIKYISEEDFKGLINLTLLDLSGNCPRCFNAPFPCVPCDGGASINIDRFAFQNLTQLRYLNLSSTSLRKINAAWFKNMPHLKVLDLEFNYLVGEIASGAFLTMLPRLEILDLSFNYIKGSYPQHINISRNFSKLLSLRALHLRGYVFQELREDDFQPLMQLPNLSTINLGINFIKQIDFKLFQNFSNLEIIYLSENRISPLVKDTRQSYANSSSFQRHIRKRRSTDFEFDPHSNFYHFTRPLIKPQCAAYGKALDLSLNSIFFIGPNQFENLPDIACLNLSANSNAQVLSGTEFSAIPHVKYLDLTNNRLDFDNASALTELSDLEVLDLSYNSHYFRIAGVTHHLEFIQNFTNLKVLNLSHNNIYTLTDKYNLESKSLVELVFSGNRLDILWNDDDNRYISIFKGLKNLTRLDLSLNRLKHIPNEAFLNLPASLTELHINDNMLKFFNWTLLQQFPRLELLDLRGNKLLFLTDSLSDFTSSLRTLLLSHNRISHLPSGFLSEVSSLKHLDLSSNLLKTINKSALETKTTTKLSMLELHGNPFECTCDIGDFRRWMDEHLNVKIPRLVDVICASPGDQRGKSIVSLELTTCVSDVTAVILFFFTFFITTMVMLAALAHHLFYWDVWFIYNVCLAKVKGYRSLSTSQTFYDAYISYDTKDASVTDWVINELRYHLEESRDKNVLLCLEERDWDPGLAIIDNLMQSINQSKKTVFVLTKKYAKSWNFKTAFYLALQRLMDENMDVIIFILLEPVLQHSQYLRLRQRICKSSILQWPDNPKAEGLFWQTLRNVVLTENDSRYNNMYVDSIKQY
Description: HEK293-Blue-hTLR-8 Cells Assay:
as §2, with “HEK293-Blue-hTLR-8” for “HEK293-Blue-hTLR-7”, “hkb-htlr8,” for “hkb-htlr7,”, “TLR8” for “TLR7”, “hTLR8” for “hTLR7”, “R848,” for “R848 (Resiquimod),”, “rep-Qb1,” for “rep-qb1,”
HEK293-Blue-hTLR8 cells were incubated at a density of 250,000-450,000 cells/mL in a volume of 170 μL in a 96-well plate in Dulbecco's Modified Eagle's medium (DMEM) containing 4.5 g/L glucose, 50 U/mL penicillin, […], […], 2 mM L-glutamine, 10% (v/v) heat-inactivated fetal bovine serum with addition of 20 μL test compound in a serial dilution in the presence of final DMSO at 1% and 10 μL of 60 μM R848 in above DMEM, perform incubation under 37° C. in a CO2 incubator for 20 hrs. Then 20 μL of the supernatant from each well was incubated with 180 μL Quanti-blue substrate solution at 37° C. for […] and the absorbance was read at 620˜655 nm using a spectrophotometer. The signaling pathway that TLR8 activation leads to downstream NF-κB activation has been widely accepted, and therefore similar reporter assay was modified for evaluating TLR8 antagonist.

Chain of human TLR7 (Q9NYK1 27-1049): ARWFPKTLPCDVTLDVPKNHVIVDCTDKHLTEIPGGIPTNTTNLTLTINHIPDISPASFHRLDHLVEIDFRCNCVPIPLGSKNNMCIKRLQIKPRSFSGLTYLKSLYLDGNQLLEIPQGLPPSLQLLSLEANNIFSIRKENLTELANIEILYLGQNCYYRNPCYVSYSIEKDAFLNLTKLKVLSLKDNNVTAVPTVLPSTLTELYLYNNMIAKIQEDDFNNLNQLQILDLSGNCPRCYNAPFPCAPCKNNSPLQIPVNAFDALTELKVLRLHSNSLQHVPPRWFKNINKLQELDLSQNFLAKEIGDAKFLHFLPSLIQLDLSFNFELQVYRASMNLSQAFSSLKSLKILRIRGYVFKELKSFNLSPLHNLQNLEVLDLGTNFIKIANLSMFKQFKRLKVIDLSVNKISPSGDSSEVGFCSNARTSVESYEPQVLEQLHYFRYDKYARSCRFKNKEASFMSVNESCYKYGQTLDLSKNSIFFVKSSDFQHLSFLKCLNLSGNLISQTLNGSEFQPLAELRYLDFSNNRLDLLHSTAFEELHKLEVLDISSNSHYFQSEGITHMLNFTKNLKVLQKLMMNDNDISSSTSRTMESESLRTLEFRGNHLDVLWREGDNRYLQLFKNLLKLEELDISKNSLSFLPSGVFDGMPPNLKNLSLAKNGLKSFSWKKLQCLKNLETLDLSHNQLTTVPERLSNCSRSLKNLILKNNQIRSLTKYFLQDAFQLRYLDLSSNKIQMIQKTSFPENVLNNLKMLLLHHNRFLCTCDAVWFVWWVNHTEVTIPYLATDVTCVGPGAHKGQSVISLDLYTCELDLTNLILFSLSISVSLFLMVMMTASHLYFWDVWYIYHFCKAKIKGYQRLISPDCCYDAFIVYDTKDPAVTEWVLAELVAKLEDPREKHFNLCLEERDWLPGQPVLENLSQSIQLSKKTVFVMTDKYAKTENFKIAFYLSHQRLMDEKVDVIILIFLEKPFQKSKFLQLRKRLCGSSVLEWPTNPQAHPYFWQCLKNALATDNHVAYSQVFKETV
Chain of human TLR9 (Q9NR96 26-1032): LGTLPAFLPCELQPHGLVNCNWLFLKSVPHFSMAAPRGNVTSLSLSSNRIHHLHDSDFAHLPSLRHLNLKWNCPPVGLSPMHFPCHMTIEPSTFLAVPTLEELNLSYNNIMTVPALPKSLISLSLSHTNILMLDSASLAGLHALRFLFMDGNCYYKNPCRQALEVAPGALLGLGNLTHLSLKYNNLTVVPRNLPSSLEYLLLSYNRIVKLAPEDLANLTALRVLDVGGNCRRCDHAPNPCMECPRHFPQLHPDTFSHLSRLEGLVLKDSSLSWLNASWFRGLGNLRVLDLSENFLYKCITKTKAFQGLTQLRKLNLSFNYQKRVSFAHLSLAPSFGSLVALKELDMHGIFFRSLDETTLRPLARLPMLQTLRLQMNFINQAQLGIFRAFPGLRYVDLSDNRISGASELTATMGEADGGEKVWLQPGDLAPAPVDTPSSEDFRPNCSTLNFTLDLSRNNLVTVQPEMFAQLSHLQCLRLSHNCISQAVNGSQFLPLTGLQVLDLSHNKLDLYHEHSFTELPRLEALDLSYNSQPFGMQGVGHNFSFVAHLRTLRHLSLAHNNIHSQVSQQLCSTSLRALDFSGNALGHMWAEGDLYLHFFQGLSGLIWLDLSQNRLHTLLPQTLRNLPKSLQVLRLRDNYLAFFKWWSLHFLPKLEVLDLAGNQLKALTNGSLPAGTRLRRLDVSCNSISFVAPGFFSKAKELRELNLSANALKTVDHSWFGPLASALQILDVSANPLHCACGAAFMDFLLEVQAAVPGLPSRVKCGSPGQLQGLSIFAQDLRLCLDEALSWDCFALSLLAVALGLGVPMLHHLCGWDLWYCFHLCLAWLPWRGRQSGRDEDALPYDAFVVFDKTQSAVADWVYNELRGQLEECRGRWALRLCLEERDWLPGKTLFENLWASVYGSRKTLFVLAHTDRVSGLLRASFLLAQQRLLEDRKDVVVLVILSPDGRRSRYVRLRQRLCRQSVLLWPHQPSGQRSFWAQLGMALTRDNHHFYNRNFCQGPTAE

With `C[C@@H]1CN(c2ccc(C#N)c3ncccc23)C[C@@H]2CC(N3CCN(c4cc5c(cn4)CCNC5)CC3)CN21` (stereo in doubt) [Example 13, 5-[(4R,7R,8aS)-4-methyl-7-[4-(5,6,7,8-tetrahydro-2,6-naphthyridin-3-yl)piperazin-1-yl]-3,4,6,7,8,8a-hexahydro-1H-pyrrolo[1,2-a]pyrazin-2-yl]quinoline-8-carbonitrile], the values for the IC50 in test [1], in test [2] and in test [3] were 49 nM, 14.9 nM and 8.2 nM, respectively.

Regarding `C[C@@H]1CN(c2ccc(C#N)c3ncccc23)C[C@@H]2C[C@@H](Nc3ccc4c(n3)CCN(C)C4)CN21` [Example 4, 5-[(4R,7R,8aS)-4-methyl-7-[(6-methyl-7,8-dihydro-5H-1,6-naphthyridin-2-yl)amino]-3,4,6,7,8,8a-hexahydro-1H-pyrrolo[1,2-a]pyrazin-2-yl]quinoline-8-carbonitrile], the IC50 in test [1] turned out to be 147 nM; in test [2] it was 21.7 nM; in test [3], 6.3 nM.

As for `C[C@@H]1CN(c2ccc(C#N)c3ncccc23)C[C@@H]2C[C@@H](N(C)c3ccc4c(n3)CCNC4)CN21` [Example 5, 5-[(4R,7R,8aS)-4-methyl-7-[methyl(5,6,7,8-tetrahydro-1,6-naphthyridin-2-yl)amino]-3,4,6,7,8,8a-hexahydro-1H-pyrrolo[1,2-a]pyrazin-2-yl]quinoline-8-carbonitrile], the IC50 was 78.1 nM in test [1], 16.9 nM in test [2] and 2.9 nM in test [3].

As for `C[C@@H]1CN(c2ccc(C#N)c3ncccc23)C[C@@H]2C[C@@H](Nc3ncc4c(n3)CCNC4)CN21` [Example 6, 5-[(4R,7R,8aS)-4-methyl-7-(5,6,7,8-tetrahydropyrido[4,3-d]pyrimidin-2-ylamino)-3,4,6,7,8,8a-hexahydro-1H-pyrrolo[1,2-a]pyrazin-2-yl]quinoline-8-carbonitrile], the IC50 in test [1] was 157 nM; in test [2], 18.8 nM; in test [3] it was 12.9 nM.

Turning to `C[C@@H]1CN(c2ccc(C#N)c3ncccc23)C[C@@H]2C[C@@H](Nc3ccc4c(n3)CN[C@@H]4C)CN21` [Example 7A, 5-[(4R,7R,8aS)-4-methyl-7-[[(5R)-5-methyl-6,7-dihydro-5H-pyrrolo[3,4-b]pyridin-2-yl]amino]-3,4,6,7,8,8a-hexahydro-1H-pyrrolo[1,2-a]pyrazin-2-yl]quinoline-8-carbonitrile], the figures for the IC50 in test [1], in test [2] and in test [3] were 53.5 nM, 17.7 nM and 9 nM, respectively.

On to `C[C@@H]1NCc2nc(N[C@@H]3C[C@H]4CN(c5ccc(C#N)c6ncccc56)C[C@@H](C)N4C3)ccc21` [Example 7B, 5-[(4R,7R,8aS)-4-methyl-7-[[(5S)-5-methyl-6,7-dihydro-5H-pyrrolo[3,4-b]pyridin-2-yl]amino]-3,4,6,7,8,8a-hexahydro-1H-pyrrolo[1,2-a]pyrazin-2-yl]quinoline-8-carbonitrile], for which the IC50 in test [1] is 56.5 nM; in test [2], 29.8 nM; in test [3], 11.3 nM.

On to `C[C@@H]1CN(c2ccc(C#N)c3ncccc23)C[C@@H]2C[C@@H](Nc3ccc4c(n3)C[C@H](C)NC4)CN21` [Example 8A, 5-[(4R,7R,8aS)-4-methyl-7-[[(7S)-7-methyl-5,6,7,8-tetrahydro-1,6-naphthyridin-2-yl]amino]-3,4,6,7,8,8a-hexahydro-1H-pyrrolo[1,2-a]pyrazin-2-yl]quinoline-8-carbonitrile], for which the IC50 amounted to 63.1 nM in test [1], 11.1 nM in test [2] and 3.6 nM in test [3].

Regarding `C[C@@H]1Cc2nc(N[C@@H]3C[C@H]4CN(c5ccc(C#N)c6ncccc56)C[C@@H](C)N4C3)ccc2CN1` [Example 8B, 5-[(4R,7R,8aS)-4-methyl-7-[[(7R)-7-methyl-5,6,7,8-tetrahydro-1,6-naphthyridin-2-yl]amino]-3,4,6,7,8,8a-hexahydro-1H-pyrrolo[1,2-a]pyrazin-2-yl]quinoline-8-carbonitrile], the IC50 turned out to be 89.4 nM in test [1], 14.7 nM in test [2] and 7.5 nM in test [3].

On to `C[C@@H]1CN(c2ccc(C#N)c3ncccc23)C[C@@H]2C[C@H](N3CCc4cc(N5CCNCC5)ccc4C3)CN21` [Example 10, 5-[(4R,7S,8aS)-4-methyl-7-(6-piperazin-1-yl-3,4-dihydro-1H-isoquinolin-2-yl)-3,4,6,7,8,8a-hexahydro-1H-pyrrolo[1,2-a]pyrazin-2-yl]quinoline-8-carbonitrile], for which the IC50 in test [1] was determined as 81.1 nM; in test [2], 30.1 nM; in test [3], 24.9 nM.

Consider `CO[C@@H]1CN(c2ccc3c(n2)CCN([C@H]2C[C@H]4CN(c5ccc(C#N)c6ncccc56)C[C@@H](C)N4C2)C3)C[C@H]1N` [Example 11, 5-[(4R,7S,8aS)-7-[2-[(3R,4R)-3-amino-4-methoxy-pyrrolidin-1-yl]-7,8-dihydro-5H-1,6-naphthyridin-6-yl]-4-methyl-3,4,6,7,8,8a-hexahydro-1H-pyrrolo[1,2-a]pyrazin-2-yl]quinoline-8-carbonitrile], for which the IC50 in test [1] was found to be 59.2 nM; in test [2], 23.4 nM; in test [3], 8.5 nM.

Consider `CO[C@@H]1CN(c2cc3c(cn2)CCN([C@H]2C[C@H]4CN(c5ccc(C#N)c6ncccc56)C[C@@H](C)N4C2)C3)C[C@H]1N` [Example 12, 5-[(4R,7S,8aS)-7-[7-[(3R,4R)-3-amino-4-methoxy-pyrrolidin-1-yl]-3,4-dihydro-1H-2,6-naphthyridin-2-yl]-4-methyl-3,4,6,7,8,8a-hexahydro-1H-pyrrolo[1,2-a]pyrazin-2-yl]quinoline-8-carbonitrile], for which the results for the IC50 in test [1], in test [2] and in test [3] were 108 nM, 45.1 nM and 17.2 nM, respectively.

The values are drawn from US12486273B2 (Hoffmann-La Roche Inc., priority 2019, dated 2025).
